Source: patent publication US10781204B2, “TYK2 inhibitors and uses thereof” (Nimbus Lakshmi, Inc., priority 2015, dated 2020)

Tests used:
JAK2 = JAK2 (Homo sapiens (Human), UniProt O60674); experiment: JAK2 radioactive kinase assay; assay type: biochemical; conditions: ATP 10 μM
Procedure: (§1) Peptide substrate, [KKSRGDYMTMQIG], (20 μM) is prepared in reaction buffer (20 mM Hepes pH 7.5, 10 mM MgCl2, 1 mM EGTA, 0.02% Brij35, 0.02 mg/mL BSA, 0.1 mM […], 2 mM DTT, 1% DMSO. TYK2 (Invitrogen) kinase is added, followed by compounds in DMSO. ^33PATP is added to initiate the reaction with ATP at 10 μM. Kinase reaction is incubated for 120 min at room temp and reactions are spotted onto P81 ion exchange paper (Whatman #3698-915), and then washed extensively in 0.75% phosphoric acid, prior to reading the radioactivity counts. For JAK2 (Invitrogen) kinase assay the peptide substrate poly[Glu:Tyr] (4:1), 0.2 mg/ml is used, in the reaction carried out the same as for TYK2.

TYK2 = TYK2 (Homo sapiens (Human), UniProt P29597); experiment: Tyk2 radioactive kinase assay; assay type: biochemical; conditions: ATP 10 μM
Sequence of TYK2 (P29597 whole entry): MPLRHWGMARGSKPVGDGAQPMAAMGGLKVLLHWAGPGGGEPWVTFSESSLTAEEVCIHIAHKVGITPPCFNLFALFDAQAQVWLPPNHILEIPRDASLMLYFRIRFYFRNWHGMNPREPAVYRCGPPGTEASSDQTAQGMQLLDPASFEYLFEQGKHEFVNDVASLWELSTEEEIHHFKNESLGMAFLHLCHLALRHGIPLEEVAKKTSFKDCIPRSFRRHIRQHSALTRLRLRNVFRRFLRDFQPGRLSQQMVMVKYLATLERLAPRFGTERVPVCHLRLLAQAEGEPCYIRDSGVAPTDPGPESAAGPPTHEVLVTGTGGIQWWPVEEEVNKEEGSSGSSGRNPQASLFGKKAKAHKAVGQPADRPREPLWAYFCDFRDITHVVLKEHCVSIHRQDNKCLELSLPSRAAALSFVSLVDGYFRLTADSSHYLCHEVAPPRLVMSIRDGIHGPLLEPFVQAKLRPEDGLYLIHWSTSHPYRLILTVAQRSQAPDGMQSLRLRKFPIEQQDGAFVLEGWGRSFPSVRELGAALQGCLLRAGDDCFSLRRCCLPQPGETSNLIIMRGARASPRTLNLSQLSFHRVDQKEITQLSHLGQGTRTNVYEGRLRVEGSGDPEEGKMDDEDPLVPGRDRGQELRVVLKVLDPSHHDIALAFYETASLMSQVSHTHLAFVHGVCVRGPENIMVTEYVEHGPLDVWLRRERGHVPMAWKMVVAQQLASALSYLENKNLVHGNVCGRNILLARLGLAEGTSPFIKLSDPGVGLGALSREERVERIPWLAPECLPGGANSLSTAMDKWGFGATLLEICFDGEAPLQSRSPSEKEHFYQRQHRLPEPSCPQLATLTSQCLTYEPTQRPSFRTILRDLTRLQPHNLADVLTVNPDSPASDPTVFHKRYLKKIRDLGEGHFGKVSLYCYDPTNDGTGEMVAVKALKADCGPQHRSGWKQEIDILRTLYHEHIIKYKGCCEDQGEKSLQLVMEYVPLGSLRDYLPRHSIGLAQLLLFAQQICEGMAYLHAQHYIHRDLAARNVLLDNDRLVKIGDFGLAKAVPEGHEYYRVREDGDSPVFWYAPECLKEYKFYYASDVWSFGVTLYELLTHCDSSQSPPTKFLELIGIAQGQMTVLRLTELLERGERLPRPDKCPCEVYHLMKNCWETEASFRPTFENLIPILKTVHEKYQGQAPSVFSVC
Procedure: as §1

[1] = test system: JAK2-pSTAT5 (GM-CSF induced pSTAT5); experiment: GM-CSF induced pSTAT5 in human PBMC; assay type: cell-based; conditions: 20 min, 5 ng/mL GM-CSF
Procedure: (§2) Human PBMC are isolated from buffy coat and are stored frozen for assays as needed. Cells for assay are thawed and resuspended in complete media containing serum, then cells are diluted to 1.67 E6 cells/ml so that 120 ul per well is 200,000 cells. 15 ul of compound or DMSO is added to the well at the desired concentrations and incubated at 1 hr at 37 C. 15 ul of stimulus (final concentration of 1.7 ng/mL IL-12) is added for 30 minutes prior to pSTAT4 and total STAT4 analysis using cell lysates prepared and analyzed by MSD reagents as per manufacturer protocol. The final DMSO concentration of compound in the assay is 0.1%.
Cells are prepared for analysis as in the above procedure and 15 ul of GM-CSF (final concentration 5 ng/mL) is added for 20 minutes prior to pSTAT5 and total STAT5 analysis using cell lysates prepared and analyzed by MSD reagents as per manufacturer protocol. The final DMSO concentration of compound in the assay is 0.1%.

[2] = test system: Tyk2-pSTAT4 (IL-12 induced pSTAT4); experiment: IL-12 induced pSTAT4 in human PBMC; assay type: cell-based; conditions: Homo sapiens, PBMC, 0.5 h, 1.7 ng/mL IL-12, 30 minutes
Procedure: as §2

Sequence of JAK2 (O60674 whole entry): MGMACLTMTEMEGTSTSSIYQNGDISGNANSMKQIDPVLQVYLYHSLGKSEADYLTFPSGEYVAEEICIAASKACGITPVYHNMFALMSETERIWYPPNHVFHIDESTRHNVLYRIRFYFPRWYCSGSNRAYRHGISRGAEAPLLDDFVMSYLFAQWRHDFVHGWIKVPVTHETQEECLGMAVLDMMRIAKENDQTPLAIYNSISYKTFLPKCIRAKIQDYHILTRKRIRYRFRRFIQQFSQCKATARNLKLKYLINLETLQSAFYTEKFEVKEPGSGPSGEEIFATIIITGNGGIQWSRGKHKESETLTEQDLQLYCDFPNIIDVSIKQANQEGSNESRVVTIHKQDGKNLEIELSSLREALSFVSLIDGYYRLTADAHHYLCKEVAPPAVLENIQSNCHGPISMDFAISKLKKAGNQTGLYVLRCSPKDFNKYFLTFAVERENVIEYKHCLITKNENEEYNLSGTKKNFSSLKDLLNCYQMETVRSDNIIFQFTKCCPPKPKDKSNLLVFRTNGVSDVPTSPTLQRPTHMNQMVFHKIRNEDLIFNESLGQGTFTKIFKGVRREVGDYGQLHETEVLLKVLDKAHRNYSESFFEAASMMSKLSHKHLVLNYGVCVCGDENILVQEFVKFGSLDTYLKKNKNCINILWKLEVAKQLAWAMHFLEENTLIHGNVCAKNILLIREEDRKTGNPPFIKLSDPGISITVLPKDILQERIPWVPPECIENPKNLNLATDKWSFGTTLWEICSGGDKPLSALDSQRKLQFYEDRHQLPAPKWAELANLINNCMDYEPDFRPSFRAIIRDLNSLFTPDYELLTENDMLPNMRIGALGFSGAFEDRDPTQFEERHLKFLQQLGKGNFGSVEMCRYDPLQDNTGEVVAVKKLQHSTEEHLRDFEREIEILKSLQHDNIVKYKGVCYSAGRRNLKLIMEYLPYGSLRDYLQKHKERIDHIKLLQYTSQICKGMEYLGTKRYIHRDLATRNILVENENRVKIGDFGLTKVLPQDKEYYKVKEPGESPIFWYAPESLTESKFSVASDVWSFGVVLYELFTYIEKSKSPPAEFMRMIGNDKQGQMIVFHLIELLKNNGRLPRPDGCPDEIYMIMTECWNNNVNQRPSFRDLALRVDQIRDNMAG

Compound	Ki (JAK2)	Ki (TYK2)	EC50 ([1]; Homo sapiens, PBMC)	EC50 [1]	EC50 [2]
N#Cc1cccc(F)c1-c1cc(-n2ccc(N3CC[C@@H](F)[C@@H](O)C3)n2)c2c(n1)CNC2=O [I-173, 3-fluoro-2-(4-(3-((3S,4R)-4-fluoro-3-hydroxypiperidin-1-yl)-1H-pyrazol-1-yl)-5-oxo-6,7-dihydro-5H-pyrrolo[3,4-b]pyridin-2-yl)benzonitrile]	0.1 to 10 nM	0.009 to 0.1 nM	> 2000 nM	–	–
N#Cc1cccc(F)c1-c1cc(-n2ccc(C3CCOCC3)n2)c2c(n1)CNC2=O [I-16, 3-fluoro-2-(5-oxo-4-(3-(tetrahydro-2H-pyran-4-yl)-1H-pyrazol-1-yl)-6,7-dihydro-5H-pyrrolo[3,4-b]pyridin-2-yl)benzonitrile]	100 to 1000 nM	0.1 to 10 nM	> 2000 nM	–	–
N#Cc1cccc(F)c1-c1cc(-n2ccc(N3C[C@@H](O)[C@@H](O)C3)n2)c2c(n1)CNC2=O [I-109, 2-(4-(3-((3S,4R)-3,4-dihydroxypyrrolidin-1-yl)-1H-pyrazol-1-yl)-5-oxo-6,7-dihydro-5H-pyrrolo[3,4-b]pyridin-2-yl)-3-fluorobenzonitrile]	0.1 to 10 nM	0.1 to 10 nM	> 2000 nM	–	–
C[C@@]1(O)CN(c2ccn(-c3cc(-c4c(F)cccc4C#N)nc4c3C(=O)NC4)n2)C[C@@](C)(O)C1 [I-145, 2-(4-(3-((3S,5S)-3,5-dihydroxy-3,5-dimethylpiperidin-1-yl)-1H-pyrazol-1-yl)-5-oxo-6,7-dihydro-5H-pyrrolo[3,4-b]pyridin-2-yl)-3-fluorobenzonitrile]	10 to 100 nM	0.1 to 10 nM	> 2000 nM	–	–
CC1(C)COC(c2ccn(-c3cc(-c4c(F)cccc4C#N)nc4c3C(=O)NC4)n2)=N1 [I-60, 2-(4-(3-(4,4-dimethyl-4,5-dihydrooxazol-2-yl)-1H-pyrazol-1-yl)-5-oxo-6,7-dihydro-5H-pyrrolo[3,4-b]pyridin-2-yl)-3-fluorobenzonitrile]	10 to 100 nM	0.1 to 10 nM	> 2000 nM	–	–
N#Cc1cccc(F)c1-c1cc(-c2cc3n(n2)CC(O)CN3)c2c(n1)CNC2=O (stereo not drawn) [I-235, 3-fluoro-2-(4-(6-hydroxy-4,5,6,7-tetrahydropyrazolo[1,5-a]pyrimidin-2-yl)-5-oxo-6,7-dihydro-5H-pyrrolo[3,4-b]pyridin-2-yl)benzonitrile]	0.1 to 10 nM	0.1 to 10 nM	> 2000 nM	–	–
O=C1NCc2nc(-c3c(F)cccc3F)cc(-n3ccc(N4CCC5(CCOCC5)CC4)n3)c21 [I-9, 4-(3-(3-oxa-9-azaspiro[5.5]undecan-9-yl)-1H-pyrazol-1-yl)-2-(2,6-difluorophenyl)-6,7-dihydro-5H-pyrrolo[3,4-b]pyridin-5-one]	100 to 1000 nM	0.1 to 10 nM	> 2000 nM	–	–
CCNC(=O)Cc1ccn(-c2cc(-c3c(F)cccc3F)nc3c2C(=O)NC3)n1 [I-2, 2-(1-(2-(2,6-difluorophenyl)-5-oxo-6,7-dihydro-5H-pyrrolo[3,4-b]pyridin-4-yl)-1H-pyrazol-3-yl)-N-ethylacetamide]	≥ 1000 nM	10 to 100 nM	–	> 2000 nM	–
N#Cc1cccc(F)c1-c1cc(-n2ccc(N3CCCC(O)(C(F)(F)F)C3)n2)c2c(n1)CNC2=O (stereo not drawn) [I-80, 3-fluoro-2-(4-(3-(3-hydroxy-3-(trifluoromethyl)piperidin-1-yl)-1H-pyrazol-1-yl)-5-oxo-6,7-dihydro-5H-pyrrolo[3,4-b]pyridin-2-yl)benzonitrile]	10 to 100 nM	0.1 to 10 nM	> 2000 nM	–	–
N#Cc1cccc(F)c1-c1cc(-n2cc3c(n2)CC(C(N)=O)CN3)c2c(n1)CNC2=O (stereo not drawn) [I-180, 2-(2-(2-cyano-6-fluorophenyl)-5-oxo-6,7-dihydro-5H-pyrrolo-[3,4-b]pyridin-4-yl)-4,5,6,7-tetrahydro-2H-pyrazolo[4,3-b]pyridine-6-carboxamide]	10 to 100 nM	0.1 to 10 nM	> 2000 nM	–	–
CN1CC2(CCN(c3ccn(-c4cc(-c5c(F)cccc5C#N)nc5c4C(=O)NC5)n3)CC2)C1 [I-110, 3-fluoro-2-(4-(3-(2-methyl-2,7-diazaspiro[3.5]nonan-7-yl)-1H-pyrazol-1-yl)-5-oxo-6,7-dihydro-5H-pyrrolo[3,4-b]pyridin-2-yl)benzonitrile]	≥ 1000 nM	≥ 1000 nM	> 2000 nM	–	–
N#Cc1cccc(F)c1-c1cc(-n2ccc(N3CCC[C@H](N)C3)n2)c2c(n1)CNC2=O [I-74, (S)-2-(4-(3-(3-aminopiperidin-1-yl)-1H-pyrazol-1-yl)-5-oxo-6,7-dihydro-5H-pyrrolo[3,4-b]pyridin-2-yl)-3-fluorobenzonitrile]	10 to 100 nM	0.1 to 10 nM	> 2000 nM	–	–
N#Cc1cccc(F)c1-c1cc(-n2ccc(N3CCOC[C@H]3CO)n2)c2c(n1)CNC2=O [I-164, (R)-3-fluoro-2-(4-(3-(3-(hydroxymethyl)morpholino)-1H-pyrazol-1-yl)-5-oxo-6,7-dihydro-5H-pyrrolo[3,4-b]pyridin-2-yl)benzonitrile]	0.1 to 10 nM	0.1 to 10 nM	> 2000 nM	–	–
N#Cc1cccc(F)c1-c1cc(-n2ccc(N3CCC4(C3)OCC(O)CO4)n2)c2c(n1)CNC2=O (stereo not drawn) [I-192, 3-fluoro-2-(4-(3-(8-hydroxy-6,10-dioxa-2-azaspiro[4.5]decan-2-yl)-1H-pyrazol-1-yl)-5-oxo-6,7-dihydro-5H-pyrrolo[3,4-b]pyridin-2-yl)benzonitrile]	0.1 to 10 nM	0.1 to 10 nM	> 2000 nM	–	–
N#Cc1cccc(F)c1-c1cc(-n2ccc(N3CCCC(N)C3)n2)c2c(n1)CNC2=O (stereo not drawn) [I-68, 2-(4-(3-(3-aminopiperidin-1-yl)-1H-pyrazol-1-yl)-5-oxo-6,7-dihydro-5H-pyrrolo[3,4-b]pyridin-2-yl)-3-fluorobenzonitrile]	10 to 100 nM	0.1 to 10 nM	> 2000 nM	–	–
CC1CC(O)CC(C)N1c1ccn(-c2cc(-c3c(F)cccc3C#N)nc3c2C(=O)NC3)n1 (stereo not drawn) [I-85, 3-fluoro-2-(4-(3-(4-hydroxy-2,6-dimethylpiperidin-1-yl)-1H-pyrazol-1-yl)-5-oxo-6,7-dihydro-5H-pyrrolo[3,4-b]pyridin-2-yl)benzonitrile]	≥ 1000 nM	10 to 100 nM	> 2000 nM	–	–
CC1(C#N)CCCN(c2ccn(-c3cc(-c4c(F)cccc4C#N)nc4c3C(=O)NC4)n2)C1 (stereo not drawn) [I-133, 1-(1-(2-(2-cyano-6-fluorophenyl)-5-oxo-6,7-dihydro-5H-pyrrolo[3,4-b]pyridin-4-yl)-1H-pyrazol-3-yl)-3-methylpiperidine-3-carbonitrile]	0.1 to 10 nM	0.1 to 10 nM	> 2000 nM	–	–
CC1CCC(O)CN1c1ccn(-c2cc(-c3c(F)cccc3C#N)nc3c2C(=O)NC3)n1 (stereo not drawn) [I-96, 3-fluoro-2-(4-(3-(5-hydroxy-2-methylpiperidin-1-yl)-1H-pyrazol-1-yl)-5-oxo-6,7-dihydro-5H-pyrrolo[3,4-b]pyridin-2-yl)benzonitrile]	10 to 100 nM	0.1 to 10 nM	> 2000 nM	–	–
O=C1NCc2nc(-c3c(F)cccc3F)cc(-n3ccc(N4CCOCC4CO)n3)c21 (stereo not drawn) [I-90, 2-(2,6-difluorophenyl)-4-(3-(3-(hydroxymethyl)morpholino)-1H-pyrazol-1-yl)-6,7-dihydro-5H-pyrrolo[3,4-b]pyridin-5-one]	100 to 1000 nM	0.1 to 10 nM	> 2000 nM	–	–
N#Cc1cccc(F)c1-c1cc(-n2cc3c(n2)NCCC3)c2c(n1)CNC2=O [I-75, 3-fluoro-2-(5-oxo-4-(4,5,6,7-tetrahydro-2H-pyrazolo[3,4-b]pyridin-2-yl)-6,7-dihydro-5H-pyrrolo[3,4-b]pyridin-2-yl)benzonitrile]	0.1 to 10 nM	0.1 to 10 nM	> 2000 nM	–	–
CCNC(=O)c1ccn(-c2cc(-c3c(F)cccc3F)nc3c2C(=O)NC3)n1 [I-3, 1-(2-(2,6-difluorophenyl)-5-oxo-6,7-dihydro-5H-pyrrolo[3,4-b]pyridin-4-yl)-N-ethyl-1H-pyrazole-3-carboxamide]	100 to 1000 nM	0.1 to 10 nM	> 2000 nM	–	–
N#Cc1cccc(F)c1-c1cc(-n2ccc(C3CCCO3)n2)c2c(n1)CNC2=O (stereo not drawn) [I-101, 3-fluoro-2-(5-oxo-4-(3-(tetrahydrofuran-2-yl)-1H-pyrazol-1-yl)-6,7-dihydro-5H-pyrrolo[3,4-b]pyridin-2-yl)benzonitrile]	10 to 100 nM	0.1 to 10 nM	> 2000 nM	–	–
CO[C@H]1CCN(c2ccn(-c3cc(-c4c(F)cccc4C#N)nc4c3C(=O)NC4)n2)C[C@@]1(C)O [I-229, 3-fluoro-2-(4-(3-((3R,4S)-3-hydroxy-4-methoxy-3-methylpiperi-din-1-yl)-1H-pyrazol-1-yl)-5-oxo-6,7-dihydro-5H-pyrrolo[3,4-b]pyridin-2-yl)benzonitrile]	10 to 100 nM	0.009 to 0.1 nM	–	–	100 to 2000 nM
